Data as given in patent EP0232423A1, “CIRCULATION IMPROVING AGENT” (GRELAN PHARMACEUTICAL CO., LTD., priority 1985, dated 1987).
Structures can show the parent of a compound that is named as a salt.

Key:
isolated basilar artery [1] = test: Relaxation of isolated basilar artery contracted by 50 mM KCl; type: cell-based, Mongrel dogs; conditions: Canis lupus familiaris, 50 mM KCl contraction
Protocol: (§1) Mongrel dogs of either sex (body weight 10-17 kg) were killed by bleeding under anesthetization with pentobarbital sodium (tradename: Nembutai ® Abbott Co., USA). Thereafter, the basilar and femoral arteries were extracted and attached blood and connective tissues were carefully removed in a dish filled with Krebs bicarbonate solution (composition: NaCl 117.7 mM, KC1 4.7 mM, CaCl2 2.5 mM, MgSo4 1.2 mM, glucose 10 mM, NaHCO3 24.4 mM). Thereafter, ring preparations were made therefrom. This preparation was suspended in a bathing tube of 10 ml filled with Krebs bicarbonate solution aerated with 95 % 02 and 5 % C02.
(§2) Then, samples of basilar and femoral arteries were contracted by application of 50 mM KC1. After confirming that the contraction was sustained, (a) compound (I) (erythro form) lactate, (b) compound (I) (threo form) lactate and (c) ifenprodil; [2-(4-benzyl- piperidino-l-(4-hydroxyphenyl)propane-l-ol] tartrate were, respectively, administered as test compounds and the dose-relaxation response was examined.
(§3) A strain gauge transducer (model SB-lT manufactured by Nihon Koden Co.) was employed for recording of change of tension and isometric contraction was recorded on a recorder (model QPD 53 made by Hitachi Ltd . ) .

isolated basilar artery [2] = test: Ca antagonistic action: Ca-induced contraction in K-depolarized basilar artery; type: cell-based, Mongrel dogs; conditions: Canis lupus familiaris, 0.25 h, 50 mM KCl, Ca-free bath, cumulative CaCl2, compound applied 15 minutes before, read-out: pA2 values on Ca-induced contraction in depolarized muscle by K (converted)
Protocol: (§4) The same measurements as in Test Example 2 were carried out using the isolated basilar artery and isolated femoral artery treated in accordance with the method of Test Example 2.
(§5) For examination of the Ca antagonistic action, the depolarization of both isolated arteries was induced with 50 mM KC1 in a bathing solution from which Ca had been removed and then CaCl2 was cumulatively applied thereto. As test compounds, (a) compound (I) (erythro form) lactate and (b) ifenprodil tartrate were applied at 15 minutes before addition of CaCl2.

ddY male mice [3] = test: Ameliorative activity against damage of cerebral hypoxia (reduced pressure); type: in vivo
Protocol: Thirty mg/kg each of compound (I) (lactate) and ifenprodil tartrate and 16 mg/kg of phentolamine, which is an a-adrenoceptor blocker, were intraperitoneally administered to ddY male mice, respectively. […] Time from start of reduction of pressure until stop of respiration in the mice was measured. The control group was drug-untreated.

mice = test: Protective action on death caused by endotoxin shock; type: in vivo; conditions: for Number of survival after administration of endotoxin: of 15 (Compound (I)) or 14 (ifenprodil) animals
From the text: Compound (I) and ifenprodil tartrate were orally administered to mice and the protective action on death due to endotoxin shock was examined in accordance with a known method (Folia pharmacol. japon, vol. 86, page 17, 1985). The control group was drug-untreated.

isolated femoral artery [4] = test: Relaxation of isolated femoral artery contracted by 50 mM KCl; type: cell-based, Mongrel dogs; conditions: Canis lupus familiaris, 50 mM KCl contraction
Protocol: as §1, §2, §3

ddY male mice [5] = test: Thromboembolic respiratory depression induced by ADP; type: in vivo; conditions: 30 mg/kg oral, ADP 40 mg/kg i.v., Compound (I) = erythro form
Protocol: The degree of formation of platelet thrombi in the pulmonary vessels of mice induced by intravenous administration of ADP can be measured based on the decrease in the respiratory rate. The anti-platelet thrombotic action of test drugs can be evaluated by using this decrease in the respiratory rate as a standard. […] Relative respiratory rate (%) was calculated according to the following formula. [formula] (cf. "Thrombosis Research", Vol. 35, Page 311, 1984)

isolated basilar artery [6] = test: PGF2α-induced 45Ca uptake in isolated basilar artery; type: cell-based, Mongrel dogs; conditions: 10^-5 M + 10^-5 M PGF2α; PGF2α alone 166.2 ± 6.0
From the text: (§6) Using the isolated basilar artery and femoral artery treated in accordance with Test Example 2, the activity of (a) compound (I) (lactate), (b) ifenprodil tartrate and (c) verapamil hydrochloride against ^45Ca influx and ^45Ca uptake were examined by the conventional method (J. Membran. Biol., vol. 59, page 19, 1981).

isolated femoral artery [7] = test: K-induced 45Ca influx in isolated femoral artery; type: cell-based, Mongrel dogs; conditions: 10^-5 M + 50 mM KCl
From the text: as §6

α1-adrenoceptor = test: Antagonism of phenylephrine (α1-agonist) contraction in saphenous vein; type: cell-based, Mongrel dogs; conditions: α1 - agonist: phenylephrine; saphenous vein; 15 minutes treatment
From the text: In this experiment, phenylephrine and clonidine were used as al-agonist and a2-agonist, respectively, and these agonists were cumulatively applied to obtain a dose-response curve.

platelets of rabbit = test: Fluidity of platelet membrane (fluorescence polarization); type: cell-based; parameters: Fluorescence polarization: unit not given here; conditions: for Fluorescence polarization: fluidity increases as value decreases
From the text: The activity of compound (I) (lactate) and ifenprodil tartrate against the fluidity of platelet membrane was examined according to a known method (Biochimica et Biophysica Acta, vol. 798, page 210, 1984) using platelets of rabbit and using n-butyl alcohol as a positive control.

ddY male mice [8] = test: Prolongation of gasping time in complete cerebral ischemic (decapitated) animals; type: in vivo; conditions: for Ratio of time (%): prolongation as compared with the control group; for Duration time of gasping: decapitated after 30 minutes
Protocol: After 30 minutes from administration, the.mice were decapitated and the duration time of gasping was measured. The control group was drug-untreated.

isolated femoral artery [9] = test: Ca antagonistic action: Ca-induced contraction in K-depolarized femoral artery; type: cell-based, Mongrel dogs; conditions: Canis lupus familiaris, 0.25 h, 50 mM KCl, Ca-free bath, cumulative CaCl2, compound applied 15 minutes before, read-out: pA2 values on Ca-induced contraction in depolarized muscle by K (converted)
Protocol: as §4, §5

`CC(C(O)c1ccc(O)cc1)N1CCC(Cc2ccccc2)CC1` (stereo not drawn) [Ifenprodil tartrate] showed an inhibition at 50 µM (isolated basilar artery [1]; 5 x 10^-5 M, mean, n = 4 - 5) of 96.6%, an inhibition at 100 µM (isolated basilar artery [1]; 10^-4 M, mean, n = 4 - 5) of 100% and an inhibition at 10 µM (isolated basilar artery [1]; 10^-5 M, mean, n = 4 - 5) of 44.1%. The inhibition at 1 µM (isolated basilar artery [1]; 10^-6 M, mean, n = 4 - 5) was 5.1%, the inhibition at 0.1 µM (isolated basilar artery [1]; 10^-7 M, mean, n = 4 - 5) was 0.9% and the EC50 (isolated basilar artery [1]; relaxation of isolated basilar artery, read-out: ED50 (the source's name)) was 11 µM. For the same compound, the Kb (isolated basilar artery [2]) was 5.37 µM, the “Time required for stoppage of respiration” value (ddY male mice [3]; 30 mg/kg intraperitoneally, 30 minutes before, pressure reduced to 160 mmHg) was 85.2 ± 4.1 s and the “effect on survival time (cerebral hypoxia)” value (ddY male mice [3]; i.p., 30 mg/kg compound (I) and ifenprodil tartrate, 16 mg/kg phentolamine) was “substantially no effect”. For the same compound, the “Number of survival after administration of endotoxin” value (“Number of survival” below) (mice; 70 mg/kg oral, 18 hr) was 11, the “Number of survival” value (mice; 70 mg/kg oral, 20 hr) was 9 and the “Number of survival” value (mice; 70 mg/kg oral, 22 hr) was 6. For the same compound, the “Number of survival” value (mice; 70 mg/kg oral, 24 hr) was 2, the “Number of survival” value (mice; 70 mg/kg oral, 48 hr) was 0 and the “Number of survival” value (mice; 200 mg/kg oral, 18 hr) was 11. The “Number of survival” value (mice; 200 mg/kg oral, 20 hr) was 9, the “Number of survival” value (mice; 200 mg/kg oral, 22 hr) was 7 and the “Number of survival” value (mice; 200 mg/kg oral, 24 hr) was 7. The “Number of survival” value (mice; 200 mg/kg oral, 48 hr) was 5, the “protective action on the death (endotoxin shock)” value (mice; oral, mice, compound (I) at 200 mg/kg) was “no such effect” and the inhibition at 50 µM (isolated femoral artery [4]; 5 x 10^-5 M, mean, n = 4 - 5) was 49.8%. The inhibition at 100 µM (isolated femoral artery [4]; 10^-4 M, mean, n = 4 - 5) was 75.9%, the inhibition at 10 µM (isolated femoral artery [4]; 10^-5 M, mean, n = 4 - 5) was 2.8% and the inhibition at 1 µM (isolated femoral artery [4]; 10^-6 M, mean, n = 4 - 5) was 0%. The inhibition at 0.1 µM (isolated femoral artery [4]; 10^-7 M, mean, n = 4 - 5) was 0%, the EC50 (isolated femoral artery [4]; relaxation of isolated femoral artery, read-out: ED50 (the source's name)) was 52 µM and the “Relative respiratory rate (%)” value (ddY male mice [5]; 1/3 hr after administration) was 34.6 ±10.2 (n=8) %. For the same compound, the “Relative respiratory rate (%)” value (ddY male mice [5]; 1 hr after administration) was 61.3 ±9.3 (n=6) %, the “Relative respiratory rate (%)” value (ddY male mice [5]; 2 hr after administration) was 52.7 ±6.1 (n=10) % and the “Relative respiratory rate (%)” value (ddY male mice [5]; 3 hr after administration) was 41.0 ±4.4 (n=8) %. The “Relative respiratory rate (%)” value (ddY male mice [5]; 5 hr after administration) was 23.0 ±9.9 (n=7) %, the “PGF2α-induced ^45Ca uptake in isolated basilar artery” value (isolated basilar artery [6]) was 125.7 ± 5.6 n mol/g wt. tissue and the “K-induced ^45Ca influx in isolated femoral artery” value (“K-induced ^45Ca influx” for short) (isolated femoral artery [7]; pre-incubation 15 min, 50 mM KCl alone 94.6 ± 5.2) was 99.8 ± 6.4 n mol/g wt. tissue. For the same compound, the “K-induced ^45Ca influx” value (isolated femoral artery [7]; pre-incubation 45 min, 50 mM KCl alone 98.4 ± 6.8) was 59.0 ± 9.8 n mol/g wt. tissue, the “K-induced ^45Ca influx” value (isolated femoral artery [7]; pre-incubation 135 min) was 64.8 ± 7.5 n mol/g wt. tissue and the pA2 value (α1-adrenoceptor) was 8.22 ± 0.29. For the same compound, the “effect on fluidity of platelet membrane” value (platelets of rabbit) was “no such activity”, the Fluorescence polarization (platelets of rabbit; 1 µM) was 7 and the Fluorescence polarization (platelets of rabbit; 10 µM) was 13±7. For the same compound, the Fluorescence polarization (platelets of rabbit; 100 µM) was 3±3, the “Ratio of time (%)” value (ddY male mice [8]; 10 mg/kg i.p.) was 10.0% and the “Duration time of gasping” value (ddY male mice [8]; 10 mg/kg intraperitoneally) was 23.0 ± 0.5 s. The “Ratio of time (%)” value (ddY male mice [8]; 30 mg/kg i.p.) was 28.7%, the “Duration time of gasping” value (ddY male mice [8]; 30 mg/kg intraperitoneally) was 26.9 ± 1.2 s and the Kb (isolated femoral artery [9]) was 29.5 µM.
